Data from patent US11926627B1 (priority 2023, dated 2024).
Converted amounts (≈) assume the structure as drawn. Read-outs that look alike come from different tables or passages of the source.

System: Mycobacterium tuberculosis H37Rv (ATCC: 25177)
Test: Resazurin Microplate Assay (REMA), antitubercular activity against H37Rv
Type: cell-based
Details: 192 h, read-out: Antitubercular activity against Mycobacterium tuberculosis H37Rv (MIC)
[1] = H37Rv, ATCC: 25177, REMA, Middlebrook 7H9 broth, 8 days incubation at 37° C. then resazurin overnight

Compound | MIC [1] | MIC (H37RV)
COC(=O)c1c(C(=O)OC)c2ccc3cc(C)ccc3n2c1C(=O)c1ccc(Cl)cc1 [7-METHYL-QUIN4, Dimethyl 1-(4-chlorobenzoyl)-7-methylpyrrolo[1,2-α]quinoline-2,3-dicarboxylate] | 4 µg/mL (≈ 9.18 µM) | 
CCOC(=O)c1cc(C(=O)c2ccc(Cl)cc2)n2c1ccc1cc(C)ccc12 [7-METHYL-QUIN3, Ethyl 1-(4-chlorobenzoyl)-7-methylpyrrolo[1,2-α]quinoline-3-carboxylate] | 4 µg/mL (≈ 10.2 µM) | 
COC(=O)c1c(C(=O)OC)c2ccc3cc(C)ccc3n2c1C(=O)c1ccc(Br)cc1 [7-METHYL-QUIN2, Dimethyl 1-(4-bromobenzoyl)-7-methylpyrrolo[1,2-α]quinoline-2,3-dicarboxylate] | 2 µg/mL (≈ 4.16 µM) | 
COC(=O)c1c(C(=O)OC)c2ccc3cc(C)ccc3n2c1C(=O)c1ccc(F)cc1 [7-METHYL-QUIN1, Dimethyl 1-(4-fluorobenzoyl)-7-methylpyrrolo[1,2-α]quinoline-2,3-dicarboxylate] |  | 0.5 µg/mL (≈ 1.19 µM)
